Data taken from the CheMixHub viscosity set.
± gives the uncertainty stated by the source.

Experiment: xn = mol fraction of the nth substance listed
Settings: 101 kPa

## ClC(Cl)(Cl)Cl + CCCCCCCO
298.15 K, x2 = 0.0559
  viscosity: 0.969 ± 0.009 mPa·s
298.15 K, x2 = 0.07
  viscosity: 0.982 ± 0.026 mPa·s
298.15 K, x2 = 0.13
  viscosity: 1.102 ± 0.029 mPa·s
298.15 K, x2 = 0.147
  viscosity: 1.151 ± 0.011 mPa·s
298.15 K, x2 = 0.19
  viscosity: 1.237 ± 0.032 mPa·s
298.15 K, x2 = 0.25
  viscosity: 1.402 ± 0.037 mPa·s
298.15 K, x2 = 0.2529
  viscosity: 1.453 ± 0.015 mPa·s
298.15 K, x2 = 0.3828
  viscosity: 1.836 ± 0.019 mPa·s
298.15 K, x2 = 0.47
  viscosity: 2.175 ± 0.057 mPa·s
298.15 K, x2 = 0.57
  viscosity: 2.716 ± 0.071 mPa·s
298.15 K, x2 = 0.6371
  viscosity: 3.08 ± 0.028 mPa·s
298.15 K, x2 = 0.67
  viscosity: 3.302 ± 0.086 mPa·s
298.15 K, x2 = 0.7713
  viscosity: 3.949 ± 0.036 mPa·s
298.15 K, x2 = 0.816
  viscosity: 4.238 ± 0.038 mPa·s
298.15 K, x2 = 0.84
  viscosity: 4.527 ± 0.12 mPa·s
308.15 K, x2 = 0.0559
  viscosity: 0.832 ± 0.008 mPa·s
308.15 K, x2 = 0.147
  viscosity: 1.004 ± 0.01 mPa·s
308.15 K, x2 = 0.2529
  viscosity: 1.227 ± 0.012 mPa·s
308.15 K, x2 = 0.3189
  viscosity: 1.321 ± 0.014 mPa·s
308.15 K, x2 = 0.3828
  viscosity: 1.489 ± 0.014 mPa·s
308.15 K, x2 = 0.6371
  viscosity: 2.329 ± 0.022 mPa·s
308.15 K, x2 = 0.7713
  viscosity: 2.943 ± 0.027 mPa·s
308.15 K, x2 = 0.816
  viscosity: 3.167 ± 0.029 mPa·s
318.15 K, x2 = 0.0559
  viscosity: 0.725 ± 0.007 mPa·s
318.15 K, x2 = 0.147
  viscosity: 0.867 ± 0.008 mPa·s
318.15 K, x2 = 0.2529
  viscosity: 1.052 ± 0.01 mPa·s
318.15 K, x2 = 0.3189
  viscosity: 1.096 ± 0.01 mPa·s
318.15 K, x2 = 0.3828
  viscosity: 1.231 ± 0.012 mPa·s
318.15 K, x2 = 0.6371
  viscosity: 1.851 ± 0.017 mPa·s
318.15 K, x2 = 0.7713
  viscosity: 2.256 ± 0.021 mPa·s
318.15 K, x2 = 0.816
  viscosity: 2.422 ± 0.022 mPa·s
